Laboratory results as given in patent US10323036B2 (Nimbus Lakshmi, Inc., priority 2016, dated 2019).

Molecular target: human TYK2 (JH2domain-pseudokinase) (Homo sapiens (Human), UniProt P29597)
Experiment: TYK2 JH2 Domain Binding Assay (KINOMEscan)
Settings: Table 4, JH2 binding assay; read-out: JH2 Kd

Sequence of human TYK2 (JH2domain-pseudokinase) (P29597 556-888): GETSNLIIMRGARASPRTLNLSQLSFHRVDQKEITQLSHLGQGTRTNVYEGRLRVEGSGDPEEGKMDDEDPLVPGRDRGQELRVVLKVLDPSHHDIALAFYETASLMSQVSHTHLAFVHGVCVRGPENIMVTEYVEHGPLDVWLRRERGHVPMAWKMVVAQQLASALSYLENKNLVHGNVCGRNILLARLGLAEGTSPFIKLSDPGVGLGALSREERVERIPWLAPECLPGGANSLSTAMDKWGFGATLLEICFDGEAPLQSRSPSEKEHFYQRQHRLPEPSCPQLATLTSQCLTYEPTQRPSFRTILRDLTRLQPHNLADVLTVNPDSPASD

Row | Kd [nM] | SMILES
1 | 1 to 10 | COc1c(F)cccc1Nc1cc(Nc2cccc(C3CC3)n2)nc2[nH]n(C)c(=O)c12 [Compound I-87, 6-((6-cyclopropylpyridin-2-yl)amino)-4-((3-fluoro-2-methoxyphenyl)amino)-2-methyl-1,2-dihydro-3H-pyrazolo[3,4-b]pyridin-3-one]
2 | 1 to 10 | COc1c(F)cccc1Nc1cc(Nc2ccc(N3CCOCC3)cn2)nc2[nH]n(C)c(=O)c12 [Compound I-89, 4-((3-fluoro-2-methoxyphenyl)amino)-2-methyl-6-((5-morpholinopyridin-2-yl)amino)-1,2-dihydro-3H-pyrazolo[3,4-b]pyridin-3-one]
3 | > 10 | COc1c(F)cccc1Nc1cc(Nc2ccc(N3CCCC3)cn2)nc2[nH]n(C)c(=O)c12 [Compound I-90, 4-((3-fluoro-2-methoxyphenyl)amino)-2-methyl-6-((5-(pyrrolidin-1-yl)pyridin-2-yl)amino)-1,2-dihydro-3H-pyrazolo[3,4-b]pyridin-3-one]
4 | 1 to 10 | COc1c(F)cccc1Nc1cc(Nc2ccc(C3CC3)cn2)nc2[nH]n(C)c(=O)c12 [Compound I-91, 6-((5-cyclopropylpyridin-2-yl)amino)-4-((3-fluoro-2-methoxyphenyl)amino)-2-methyl-1,2-dihydro-3H-pyrazolo[3,4-b]pyridin-3-one]
5 | 1 to 10 | COc1c(F)cccc1Nc1cc(Nc2cccc(N3CC(OC)C3)n2)nc2[nH]n(C)c(=O)c12 [Compound I-94, 4-((3-fluoro-2-methoxyphenyl)amino)-6-((6-(3-methoxyazetidin-1-yl)pyridin-2-yl)amino)-2-methyl-1,2-dihydro-3H-pyrazolo[3,4-b]pyridin-3-one]
6 | 1 to 10 | COc1c(Cl)cccc1Nc1cc(Nc2cc(C)c(F)cn2)nc2[nH]n(C)c(=O)c12 [Compound I-95, 4-((3-chloro-2-methoxyphenyl)amino)-6-((5-fluoro-4-methylpyridin-2-yl)amino)-2-methyl-1,2-dihydro-3H-pyrazolo[3,4-b]pyridin-3-one]
7 | 0.1 to 0.5 | COc1c(Cl)cccc1Nc1cc(Nc2cc(C)nc(C)n2)nc2[nH]n(C)c(=O)c12 [Compound I-96, 4-((3-chloro-2-methoxyphenyl)amino)-6-((2,6-dimethylpyrimidin-4-yl)amino)-2-methyl-1,2-dihydro-3H-pyrazolo[3,4-b]pyridin-3-on]
8 | 0.5 to 1 | COCc1ccnc(Nc2cc(Nc3cccc(Cl)c3OC)c3c(=O)n(C)[nH]c3n2)c1 [Compound I-97, 4-((3-chloro-2-methoxyphenyl)amino)-6-((4-(methoxymethyl)pyridin-2-yl)amino)-2-methyl-1,2-dihydro-3H-pyrazolo[3,4-b]pyridin-3-one]
9 | 0.5 to 1 | COc1c(Cl)cccc1Nc1cc(Nc2ccc(C#N)cn2)nc2[nH]n(C)c(=O)c12 [Compound I-98, 6-((4-((3-chloro-2-methoxyphenyl)amino)-2-methyl-3-oxo-2,3-dihydro-1H-pyrazolo[3,4-b]pyridin-6-yl)amino)nicotinonitrile]
10 | 0.5 to 1 | COc1c(Cl)cccc1Nc1cc(Nc2cccc(C#N)n2)nc2[nH]n(C)c(=O)c12 [Compound I-99, 6-((4-((3-chloro-2-methoxyphenyl)amino)-2-methyl-3-oxo-2,3-dihydro-1H-pyrazolo[3,4-b]pyridin-6-yl)amino)picolinonitrile]
11 | 1 to 10 | COc1c(Cl)cccc1Nc1cc(Nc2cc(CO)ccn2)nc2[nH]n(C)c(=O)c12 [Compound I-101, 4-((3-chloro-2-methoxyphenyl)amino)-6-((4-(hydroxymethyl)pyridin-2-yl)amino)-2-methyl-1,2-dihydro-3H-pyrazolo[3,4-b]pyridin-3-one]
12 | 1 to 10 | COc1c(Cl)cccc1Nc1cc(Nc2ccc(C)nn2)nc2[nH]n(C)c(=O)c12 [Compound I-105, 4-((3-chloro-2-methoxyphenyl)amino)-2-methyl-6-((6-methylpyridazin-3-yl)amino)-1,2-dihydro-3H-pyrazolo[3,4-b]pyridin-3-one]
13 | 0.1 to 0.5 | Cc1cc(Nc2cc(Nc3ccccc3S(C)(=O)=O)c3c(=O)n(C)[nH]c3n2)ncc1F [Compound I-107, 6-((5-fluoro-4-methylpyridin-2-yl)amino)-2-methyl-4-((2-(methylsulfonyl)phenyl)amino)-1,2-dihydro-3H-pyrazolo[3,4-b]pyridin-3-one]
14 | 0.1 to 0.5 | Cc1cc(Nc2cc(Nc3ccccc3S(C)(=O)=O)c3c(=O)n(C)[nH]c3n2)nc(C)n1 [Compound I-108, 6-((2,6-dimethylpyrimidin-4-yl)amino)-2-methyl-4-((2-(methylsulfonyl)phenyl)amino)-1,2-dihydro-3H-pyrazolo[3,4-b]pyridin-3-one]
15 | 0.1 to 0.5 | Cc1ccc(Nc2cc(Nc3ccccc3S(C)(=O)=O)c3c(=O)n(C)[nH]c3n2)nn1 [Compound I-109, 2-methyl-6-((6-methylpyridazin-3-yl)amino)-4-((2-(methylsulfonyl)phenyl)amino)-1,2-dihydro-3H-pyrazolo[3,4-b]pyridin-3-one]
16 | 1 to 10 | COCc1ccnc(Nc2cc(Nc3ccccc3S(C)(=O)=O)c3c(=O)n(C)[nH]c3n2)c1 [Compound I-110, 6-((4-(methoxymethyl)pyridin-2-yl)amino)-2-methyl-4-((2-(methylsulfonyl)phenyl)amino)-1,2-dihydro-3H-pyrazolo[3,4-b]pyridin-3-one]
17 | 0.1 to 0.5 | Cc1ccc(Nc2cc(Nc3ccccc3S(C)(=O)=O)c3c(=O)n(C)[nH]c3n2)nc1 [Compound I-111, 2-methyl-6-((5-methylpyridin-2-yl)amino)-4-((2-(methylsulfonyl)phenyl)amino)-1,2-dihydro-3H-pyrazolo[3,4-b]pyridin-3-one]
18 | < 0.1 | Cn1[nH]c2nc(Nc3cccc(C#N)n3)cc(Nc3ccccc3S(C)(=O)=O)c2c1=O [Compound I-112, 6-((2-methyl-4-((2-(methylsulfonyl)phenyl)amino)-3-oxo-2,3-dihydro-1H-pyrazolo[3,4-b]pyridin-6-yl)amino)picolinonitrile]
19 | 0.1 to 0.5 | Cn1[nH]c2nc(Nc3cccc(C(F)(F)F)n3)cc(Nc3ccccc3S(C)(=O)=O)c2c1=O [Compound I-113, 2-methyl-4-((2-(methylsulfonyl)phenyl)amino)-6-((6-(trifluoromethyl)pyridin-2-yl)amino)-1,2-dihydro-3H-pyrazolo[3,4-b]pyridin-3-one]
20 | 1 to 10 | COc1c(Cl)cccc1Nc1cc(Nc2ccc(N3CCOCC3)cn2)nc2[nH]n(C)c(=O)c12 [Compound I-115, 4-((3-chloro-2-methoxyphenyl)amino)-2-methyl-6-((5-morpholinopyridin-2-yl)amino)-1,2-dihydro-3H-pyrazolo[3,4-b]pyridin-3-one]
21 | > 10 | COc1c(Cl)cccc1Nc1cc(Nc2cncc(C#N)n2)nc2[nH]n(C)c(=O)c12 [Compound I-117, 6-((4-((3-chloro-2-methoxyphenyl)amino)-2-methyl-3-oxo-2,3-dihydro-1H-pyrazolo[3,4-b]pyridin-6-yl)amino)pyrazine-2-carbonitrile]
22 | > 10 | Cn1[nH]c2nc(Nc3ccc(N4CCCCC4)cn3)cc(Nc3ccccc3S(C)(=O)=O)c2c1=O [Compound I-118, 2-methyl-4-((2-(methylsulfonyl)phenyl)amino)-6-((5-(piperidin-1-yl)pyridin-2-yl)amino)-1,2-dihydro-3H-pyrazolo[3,4-b]pyridin-3-one]
23 | 1 to 10 | Cn1[nH]c2nc(Nc3cncc(C#N)n3)cc(Nc3ccccc3S(C)(=O)=O)c2c1=O [Compound I-119, 6-((2-methyl-4-((2-(methylsulfonyl)phenyl)amino)-3-oxo-2,3-dihydro-1H-pyrazolo[3,4-b]pyridin-6-yl)amino)pyrazine-2-carbonitrile]

Row | SMILES | Kd [nM]
24 | COc1c(Nc2cc(NC(=O)C3CC3)nc3[nH]n(C)c(=O)c23)cccc1N1CCCC1=O [Compound I-88, N-(4-((2-methoxy-3-(2-oxopyrrolidin-1-yl)phenyl)amino)-2-methyl-3-oxo-2,3-dihydro-1H-pyrazolo[3,4-b]pyridin-6-yl)cyclopropanecarboxamide] | 1 to 10
25 | COCc1ccc(Nc2cc(Nc3ccc(C(=O)N4CCCC4)c(C(F)(F)F)n3)nc3[nH]n(C)c(=O)c23)c(OC)c1 [Compound I-92, 4-((2-methoxy-4-(methoxymethyl)phenyl)amino)-2-methyl-6-((5-(pyrrolidine-1-carbonyl)-6-(trifluoromethyl)pyridin-2-yl)amino)-1,2-dihydro-3H-pyrazolo[3,4-b]pyridin-3-one] | 0.1 to 0.5
26 | COCc1ccc(Nc2cc(Nc3ccc(C)c(C(F)(F)F)n3)nc3[nH]n(C)c(=O)c23)c(OC)c1 [Compound I-93, 4-((2-methoxy-4-(methoxymethyl)phenyl)amino)-2-methyl-6-((5-methyl-6-(trifluoromethyl)pyridin-2-yl)amino)-1,2-dihydro-3H-pyrazolo[3,4-b]pyridin-3-one] | 1 to 10
27 | [2H]C([2H])([2H])n1[nH]c2nc(NC(=O)C3CC3)cc(Nc3cccc(-c4nnn(C)n4)c3OC)c2c1=O [Compound I-100] | < 0.1
28 | COc1c(Nc2cc(NC(=O)C3CC3)nc3[nH]n(C)c(=O)c23)cccc1C(N)=O [Compound I-102, 3-((6-(cyclopropanecarboxamido)-2-methyl-3-oxo-2,3-dihydro-1H-pyrazolo[3,4-b]pyridin-4-yl)amino)-2-methoxybenzamide] | > 10
29 | COc1c(Nc2cc(Nc3cc(C)nc(C)n3)nc3[nH]n(C)c(=O)c23)cccc1C(N)=O [Compound I-103, 3-((6-((2,6-dimethylpyrimidin-4-yl)amino)-2-methyl-3-oxo-2,3-dihydro-1H-pyrazolo[3,4-b]pyridin-4-yl)amino)-2-methoxybenzamide] | > 10
30 | COCc1ccc(Nc2cc(Nc3ccc(OC)c(C(F)(F)F)n3)nc3[nH]n(C)c(=O)c23)c(OC)c1 [Compound I-104, 4-((2-methoxy-4-(methoxymethyl)phenyl)amino)-6-((5-methoxy-6-(trifluoromethyl)pyridin-2-yl)amino)-2-methyl-1,2-dihydro-3H-pyrazolo[3,4-b]pyridin-3-one] | > 10
31 | COc1c(Nc2cc(Nc3cc(C)c(F)cn3)nc3[nH]n(C)c(=O)c23)cccc1C(N)=O [Compound I-106] | 1 to 10
32 | CCNC(=O)c1ccc(Nc2cc(NC(=O)C3CC3)nc3[nH]n(C)c(=O)c23)c(OC)c1 [Compound I-114, 4-((6-(cyclopropanecarboxamido)-2-methyl-3-oxo-2,3-dihydro-1H-pyrazolo[3,4-b]pyridin-4-yl)amino)-N-ethyl-3-methoxybenzamide] | 1 to 10
